Measured values from patent US8691818B2, “Cyclic triazo and diazo sodium channel blockers” (University Of Greenwich, priority 2008, dated 2014).
pIC50: −log10 of the molar value. Like-named read-outs stand apart in the source and are kept apart here.

How the values were obtained:
sodium channel = assay: [14C]guanidine flux: veratrine-evoked uptake of [14C]guanidine into rat forebrain synaptosomes (primary sodium channel assay); type: biochemical; conditions: 30° for 2½ min
Method in brief: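 Synaptosomal fraction from male Wistar rat forebrain (without cerebellum/medulla), 20-25 mg wet weight/ml. Veratrine-evoked [14C]guanidine uptake at 30° for 2½ min across a compound concentration range; IC50 from concentration-effect curves, mean±sem.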

hERG [1] = biological target: T1, hERG (Homo sapiens, UniProt Q12809)
[2] = biological target: T2, DiHydroFolate Reductase (DHFR) (Rattus norvegicus, UniProt Q920D2); assay: Inhibition of binding of [3H]methotrexate to rat liver homogenate supernatant; conditions: for inhibition at 125 µM: read-out: [3H]mtx binding (% inhibition @ 125 μM)
T2 construct: from tissue; host or cells: rat liver homogenate supernatant
T2 sequence (Q920D2 1-187): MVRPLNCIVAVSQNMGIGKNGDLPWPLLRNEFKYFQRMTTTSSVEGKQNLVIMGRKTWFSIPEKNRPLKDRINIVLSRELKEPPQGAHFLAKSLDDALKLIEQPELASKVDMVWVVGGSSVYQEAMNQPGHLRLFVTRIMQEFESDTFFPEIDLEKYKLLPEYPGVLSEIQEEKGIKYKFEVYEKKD
Method in brief: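 Displacement of [3H]methotrexate binding to rat liver homogenate supernatant, prepared at 4 °C in pH 6.0 phosphate buffer with 15 mM dithiothreitol. Values are mean±sem over the number of experiments shown.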

Rat microsome stability = type: in vitro ADME; conditions: 1 μM, rat liver microsomes
Description: Compounds were sent to BioFocus for measurement of their stability@1 μM concentration following incubation with rat liver microsomes for 40 minutes@37°.

[3] = tested on: 0.4 mm slices of rat hippocampus; assay: tissue or blood; type: cell-based; conditions: Rattus norvegicus; 30 μM; iodoacetate 400 μM insult; slice ATP; read-out: % protection (v 1 μM TTX) (mean ± sem) (no. of expt's)
Sodium Channel, Site 2 = type: binding, Wistar Rat; conditions: read-out: [3H]BTX-B binding Extrapolated IC50
hERG [4] = biological target: T1, hERG; assay: hERG: inhibition of binding of [3H]astemizole to HEK-293 cells expressing human recombinant hERG; conditions: for inhibition at 10 µM: human, probe [3H]astemizole
L-Type Calcium Channels = assay: L-type calcium channels: inhibition of binding of [3H]nitrendipine to rat cerebral cortex membranes; conditions: for L-type Ca2+ % inhibition @ 10 μM: [3H]nitrendipine binding; for IC50: read-out: L-type Ca2+ IC50 (μM) (extrapolated from 10 μM inh'n), extrapolated assuming binding slope 1.0
hERG [5] = biological target: T1, hERG; assay: in vitro

T1 sequence (Q12809 whole entry): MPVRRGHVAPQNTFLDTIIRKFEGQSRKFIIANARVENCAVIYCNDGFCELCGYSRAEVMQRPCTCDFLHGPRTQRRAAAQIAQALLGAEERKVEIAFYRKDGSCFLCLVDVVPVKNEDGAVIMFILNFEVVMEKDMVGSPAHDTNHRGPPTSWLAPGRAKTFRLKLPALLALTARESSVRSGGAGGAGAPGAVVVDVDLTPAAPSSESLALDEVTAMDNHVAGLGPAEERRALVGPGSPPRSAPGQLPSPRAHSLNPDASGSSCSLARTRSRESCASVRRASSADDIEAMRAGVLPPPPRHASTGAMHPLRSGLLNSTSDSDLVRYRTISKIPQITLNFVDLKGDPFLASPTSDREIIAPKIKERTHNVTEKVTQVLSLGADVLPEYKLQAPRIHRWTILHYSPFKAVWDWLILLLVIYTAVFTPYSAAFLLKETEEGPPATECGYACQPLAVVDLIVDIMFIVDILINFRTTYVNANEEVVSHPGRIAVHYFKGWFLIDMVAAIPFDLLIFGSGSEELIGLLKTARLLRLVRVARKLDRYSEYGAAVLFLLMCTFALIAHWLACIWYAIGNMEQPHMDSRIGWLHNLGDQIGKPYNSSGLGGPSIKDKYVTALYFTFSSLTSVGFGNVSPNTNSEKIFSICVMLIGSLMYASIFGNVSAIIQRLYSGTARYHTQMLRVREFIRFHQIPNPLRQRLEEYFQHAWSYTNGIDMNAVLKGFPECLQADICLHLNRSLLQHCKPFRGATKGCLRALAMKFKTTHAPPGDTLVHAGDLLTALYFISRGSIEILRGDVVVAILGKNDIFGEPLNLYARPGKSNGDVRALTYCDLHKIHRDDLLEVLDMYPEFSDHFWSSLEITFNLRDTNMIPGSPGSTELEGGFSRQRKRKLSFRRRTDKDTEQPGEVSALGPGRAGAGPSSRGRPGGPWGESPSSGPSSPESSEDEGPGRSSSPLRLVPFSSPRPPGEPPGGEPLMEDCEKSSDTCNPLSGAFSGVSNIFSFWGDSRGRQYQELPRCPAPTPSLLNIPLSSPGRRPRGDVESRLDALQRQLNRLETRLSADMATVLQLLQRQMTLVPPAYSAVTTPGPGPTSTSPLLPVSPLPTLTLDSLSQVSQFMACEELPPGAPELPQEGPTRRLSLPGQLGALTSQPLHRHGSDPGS

Compound	pIC50 (sodium channel)	pIC50 (hERG [1])	[3H]mtx binding (% inhibition @ 125 μM) ([2]; 125 μM) [%]	Microsome stability % metabolized (40 min incubation 37°) (Rat microsome stability) [%]	Emax at 30 µM [3] [%]	pIC50 (Sodium Channel, Site 2)	pIC50 (hERG [4])	inhibition at 10 µM (hERG [4]) [%]	inhibition at 125 µM ([2]; 125 μM) [%]	L-type Ca2+ % inhibition @ 10 μM (L-Type Calcium Channels) [%]	IC50 (L-Type Calcium Channels) [µM]	melting point [°C]	pIC50 (sodium channel; listed as 92)	[3H]mtx binding (% inhibition @ 125 μM) ([2]; 125 μM, listed as 92, 125 µM) [%]	inhibition at 10 µM (hERG [5]) [%]	inhibition at 125 µM [2] [%]
6-Adamantyl-3,5-diamino-1,2,4-triazine [CEN-83]	4.39	4.28	−5													
Nc1nnc(-c2cccc(Cl)c2Cl)c(N)n1 [CEN-1, Lamotrigine, reference compound]	3.66			0.5	41	< 3.70										
N=c1nc(N)c(-c2cccc(Cl)c2Cl)nn1CC(F)(F)F [CEN-67, 5(3)-Amino-6-(2,3-dichlorophenyl)-2,3(2,5)-dihydro-3(5)-imino-2-(2,2,2-trifluoroethyl)-1,2,4-triazine]	5.37			0.5	3		4.24	15	11	−16	> 190					
Nc1nnc(-c2ccc3ccccc3c2)c(N)n1 [CEN-73, 3,5-Diamino-6-(2-naphthyl)-1,2,4-triazine]	4.09			62.5			< 3.70	3	5	8	115	215 to 216				
Nc1nnc(-c2sc(Cl)c(Cl)c2Cl)c(N)n1 [CEN-79, 3,5-Diamino-6-[2-(3,4,5 trichlorothienyl)]-1,2,4-triazine]	3.68			0.0			< 3.70	3	-1	17	48.8	263 to 265				
Nc1nnc(-c2cccc(Oc3ccccc3)c2)c(N)n1 [CEN-84, 3,5-Diamino-6-(3-phenoxphenyl)-1,2,4-triazine]	4.36			33.0			4.00	9	-4	7	133	152 to 153				
Nc1nnc(-c2cc(C(F)(F)F)cc(C(F)(F)F)c2)c(N)n1 [CEN-92, 3,5-Diamino-6-(3,5-bistrifluoromethylphenyl)-1,2,4-triazine]				0.0	32		< 3.70	4		3	> 190		3.84	15		
N=c1nc(N)c(-c2ccccc2Oc2ccccc2)nn1CC(F)(F)F [CEN-98, 5(3)-Amino-6-(2-phenoxyphenyl)-2,3(2,5)-dihydro-3(5)-imino-2-(1,1,1-trifluoroethyl)-1,2,4-triazine]	5.05			6.0	11		4.34	18	41	−18	> 190					
Nc1nnc2c(n1)-c1cccc3cccc-2c13 [CEN-155]	4.47						4.46								22	-6
